US20230218581A1, “COMPOSITIONS AND METHODS COMPRISING DENDRIMERS AND THERAPEUTIC AGENTS” (The Johns Hopkins University, priority 2020, published 2023)

Tests used:
mouse primary glia = assay: exosome release from glial cells, nanoparticle tracking analysis; assay type: cell-based; settings: glia activated by FBS, 0.03-100 μM, two hours after treatment
[1] = test system: human immunodeficiency virus (HIV); settings: cited from earlier work
[2] = DPTIP pharmacokinetics in mice; assay type: in vivo
Description: (§1) The in vitro and in vivo pharmacokinetic properties of DPTIP were evaluated.
(§2) ; FIG. 6C) administration in mice were not optimal (F<5%, AUCbrain/plasma ratio <0.2).

[3] = phase II glucuronidation stability; assay type: in vitro ADME; settings: at 1 hr
Description: as §2

alkaline phosphatase = assay: selectivity: alkaline phosphatase inhibition; assay type: biochemical
[4] = Phase I metabolic stability, mouse liver microsomes; assay type: in vitro ADME; settings: at 1 hr
Description: as §1, §2

[5] = Phase I metabolic stability, human liver microsomes; assay type: in vitro ADME; settings: at 1 hr
Description: as §1, §2

[6] = 759 bioassays; cited from earlier work
[7] = DPTIP brain penetration in AD mice (3xTg); assay type: in vivo; settings: mouse, brain/plasma, ip; AD mice (3×Tg), 10 mg/kg i.p.
Description: as §2

acid sphingomyelinase = biological target: T1, acid sphingomyelinase (Homo sapiens, UniProt P17405); assay: selectivity: acid sphingomyelinase inhibition
T1 sequence (P17405 47-631): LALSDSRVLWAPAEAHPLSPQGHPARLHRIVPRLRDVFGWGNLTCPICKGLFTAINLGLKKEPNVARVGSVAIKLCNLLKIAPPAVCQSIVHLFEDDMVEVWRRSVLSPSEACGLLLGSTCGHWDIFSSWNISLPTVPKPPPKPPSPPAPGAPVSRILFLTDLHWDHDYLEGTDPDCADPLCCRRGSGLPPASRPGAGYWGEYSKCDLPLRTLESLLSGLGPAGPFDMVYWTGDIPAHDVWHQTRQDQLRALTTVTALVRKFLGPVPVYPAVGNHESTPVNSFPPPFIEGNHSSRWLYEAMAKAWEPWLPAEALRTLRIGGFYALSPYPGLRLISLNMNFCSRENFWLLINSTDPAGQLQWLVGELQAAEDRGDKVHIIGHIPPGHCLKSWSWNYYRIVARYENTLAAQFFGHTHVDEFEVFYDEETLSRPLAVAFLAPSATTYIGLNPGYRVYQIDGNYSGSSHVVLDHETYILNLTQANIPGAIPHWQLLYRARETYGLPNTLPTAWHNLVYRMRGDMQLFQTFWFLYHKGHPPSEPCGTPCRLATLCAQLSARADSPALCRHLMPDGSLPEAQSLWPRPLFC

P38d/MAPK13 = biological target: T2, P38d/MAPK13 (Homo sapiens, UniProt O15264); assay: p38 MAP kinase profiling, P38d; assay type: biochemical; settings: DPTIP tested at 0.001-100 μM
T2 sequence (O15264 1-365): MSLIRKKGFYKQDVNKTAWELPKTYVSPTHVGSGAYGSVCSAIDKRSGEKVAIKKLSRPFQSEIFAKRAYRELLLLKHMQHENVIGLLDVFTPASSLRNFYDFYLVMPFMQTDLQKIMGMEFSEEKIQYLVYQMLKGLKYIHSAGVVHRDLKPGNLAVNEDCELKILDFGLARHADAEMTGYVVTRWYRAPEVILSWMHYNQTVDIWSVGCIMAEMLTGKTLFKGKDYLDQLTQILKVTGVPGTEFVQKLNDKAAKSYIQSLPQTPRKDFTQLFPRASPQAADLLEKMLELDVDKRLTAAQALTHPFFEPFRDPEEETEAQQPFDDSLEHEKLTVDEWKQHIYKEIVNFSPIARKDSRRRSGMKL

P38a/MAPK14 = P38a/MAPK14 (Homo sapiens, UniProt Q16539); assay: p38 MAP kinase profiling, P38a; settings: DPTIP tested at 0.001-100 μM
Chain of P38a/MAPK14 (Q16539 whole entry): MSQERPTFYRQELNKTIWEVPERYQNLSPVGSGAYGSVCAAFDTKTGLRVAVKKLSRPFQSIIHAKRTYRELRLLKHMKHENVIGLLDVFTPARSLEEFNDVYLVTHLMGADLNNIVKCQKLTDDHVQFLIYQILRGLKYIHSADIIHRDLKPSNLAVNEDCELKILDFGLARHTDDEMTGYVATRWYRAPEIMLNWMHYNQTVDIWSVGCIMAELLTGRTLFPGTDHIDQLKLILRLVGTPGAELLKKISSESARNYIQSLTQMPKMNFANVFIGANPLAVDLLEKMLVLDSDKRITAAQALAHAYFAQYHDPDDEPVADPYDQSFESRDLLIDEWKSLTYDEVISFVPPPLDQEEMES

P38g = biological target: T3, P38g (Homo sapiens, UniProt P53778); assay: p38 MAP kinase profiling, P38g; settings: DPTIP tested at 0.001-100 μM
T3 sequence (P53778 1-367): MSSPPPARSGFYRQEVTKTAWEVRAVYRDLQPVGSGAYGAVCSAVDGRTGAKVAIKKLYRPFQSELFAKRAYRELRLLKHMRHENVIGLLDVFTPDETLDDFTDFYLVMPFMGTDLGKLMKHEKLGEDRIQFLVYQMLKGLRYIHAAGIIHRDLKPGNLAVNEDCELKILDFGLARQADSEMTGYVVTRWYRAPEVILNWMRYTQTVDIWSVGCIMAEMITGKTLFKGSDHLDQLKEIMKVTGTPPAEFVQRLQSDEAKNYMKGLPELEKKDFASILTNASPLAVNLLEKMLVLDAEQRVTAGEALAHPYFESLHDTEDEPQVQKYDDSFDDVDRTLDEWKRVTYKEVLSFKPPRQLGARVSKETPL

horizontal brain slices = assay: voltage traces from brain slices on multielectrode array; settings: pre and post 10 μM treatment
[8] = test system: synaptic proteins (PSD-95, NR2A, GluR1); assay: synaptic protein levels after nSMase2 inhibitor treatment; assay type: in vivo; settings: 10 mg/kg daily; intraperitoneal
P38b/MAPK11 = P38b/MAPK11 (Homo sapiens, UniProt Q15759); assay: p38 MAP kinase profiling, P38b; settings: DPTIP tested at 0.001-100 μM
Chain of P38b/MAPK11 (Q15759 whole entry): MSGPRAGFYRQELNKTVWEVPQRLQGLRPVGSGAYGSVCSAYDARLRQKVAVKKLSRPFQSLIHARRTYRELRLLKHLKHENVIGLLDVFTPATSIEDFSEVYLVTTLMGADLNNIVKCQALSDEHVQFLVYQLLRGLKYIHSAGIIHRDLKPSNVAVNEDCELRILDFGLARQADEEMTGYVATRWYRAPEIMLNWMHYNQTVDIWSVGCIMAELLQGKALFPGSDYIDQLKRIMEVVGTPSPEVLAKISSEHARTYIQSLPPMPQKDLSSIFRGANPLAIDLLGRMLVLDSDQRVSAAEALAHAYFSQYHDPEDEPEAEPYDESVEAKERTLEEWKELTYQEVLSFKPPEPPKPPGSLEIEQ

| Compound | exosome release (mouse primary glia) | dendritic cell-mediated infection of healthy CD4+ T lymphocytes [1] | levels of DPTIP post-administration ([2]; 2-he post-administration) | Kp ([2]; mouse, brain/plasma, 10 mg/kg PO, read-out: AUCbrain/plasma ratio) | clearance ([2]; mouse, plasma, oral, 10 mg/kg, read-out: clearance Clapp) [mL/min/kg] | half-life ([2]; mouse, plasma, oral, 10 mg/kg, read-out: plasma half-life t½ (converted)) [min] | bioavailability ([2]; mouse, plasma, 10 mg/kg PO, read-out: oral bioavailability F) [%] | % remaining (phase II glucuronidation) [3] [%] | IC50 (alkaline phosphatase) [µM] | % remaining (CYP-dependent oxidation) [4] [%] | % remaining (CYP-dependent oxidation) [5] [%] | share of assays with weak activity (μM) [6] [%] | Kp [7] | IC50 (acid sphingomyelinase) [µM] | IC50 (M) (P38d/MAPK13) | IC50 (M) (P38a/MAPK14) | IC50 (M) (P38g) | differences in voltage traces (neuronal function) (horizontal brain slices) | effect on PSD95 or NR2A [8] | IC50 (M) (P38b/MAPK11) |
| --- | --- | --- | --- | --- | --- | --- | --- | --- | --- | --- | --- | --- | --- | --- | --- | --- | --- | --- | --- | --- |
| COc1cc(OC)cc(-c2nc(-c3cccs3)c(-c3ccccc3)[nH]2)c1 [des-hydroxyl analog, reference compound] | no effect | – | – | – | – | – | – | – | – | – | – | – | – | – | – | – | – | – | – | – |
| CCCCCCCCCC(=O)N[C@H](CO)C(=O)NC1=CC2(CO2)C(=O)C=C1 (stereo partly drawn) [spiroepoxide] | – | reduced | – | – | – | – | – | – | – | – | – | – | – | – | – | – | – | – | – | – |
| COc1cc(-c2nc(-c3cccs3)c(-c3ccccc3)[nH]2)cc(OC)c1O [DPTIP, 2,6-dimethoxy-4-(5-phenyl-4-(thiophen-2-yl)-1H-imidazol-2-yl) phenol] | inhibited exosome release in a dose-dependent manner | – | undetectable | < 0.2 | 92 | ~30 | < 5 | > 50 | > 100 | 100 | 100 | < 2.5 | < 0.2 | > 100 | not quantifiable | not quantifiable | not quantifiable | No significant differences | no significant effect | not quantifiable |
